Assays:
Format in all cases: in vivo
[1] = test system: lambsquarters (Chenopodium album, CHEAL); assay: Post-emerge test, greenhouse herbicide activity screening; conditions: rating scale 0-100 (0 no damage, 100 complete death), 14 days after application
In short: (§1)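 Each test used a mechanized track sprayer delivering 187 l/ha of acetone solution at 15–1000 g ai/ha. Post-emerge foliage at 2–3 leaves was treated with added 0.25% v/v non-ionic surfactant and bottom-watered only. Injury was assessed on day 14, where 100 means total kill.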

[2] = test system: johnsongrass (Sorghum halepense, SORHA); assay: as above; conditions: rating scale 0-100 (0 no damage, 100 complete death), 14 days after application
In short: as §1

[3] = test system: velvetleaf (Abutilon theophrasti, ABUTH); assay: as above; conditions: rating scale 0-100 (0 no damage, 100 complete death), 14 days after application
In short: as §1

[4] = test system: barnyardgrass (Echinochloa crus-galli, ECHCG); assay: as above; conditions: rating scale 0-100 (0 no damage, 100 complete death), 14 days after application
In short: as §1

[5] = test system: common ragweed (Ambrosia artemisizfolia L., AMBEL); assay: as above; conditions: rating scale 0-100 (0 no damage, 100 complete death), 14 days after application
In short: as §1

[6] = test system: ivyleaf morningglory (Ipomoea hederacea, IPOHE); assay: as above; conditions: rating scale 0-100 (0 no damage, 100 complete death), 14 days after application
In short: as §1

[7] = test system: large crabgrass (Digitaria sanguinalis, DIGSA); assay: as above; conditions: rating scale 0-100 (0 no damage, 100 complete death), 14 days after application
In short: as §1

[8] = test system: sicklepod (Cassia obtusifolia, CASOB); assay: as above; conditions: rating scale 0-100 (0 no damage, 100 complete death), 14 days after application
In short: as §1

[9] = test system: redroot pigweed (Amaranthus retroflexus, AMARE); assay: as above; conditions: rating scale 0-100 (0 no damage, 100 complete death), 14 days after application
In short: as §1

[10] = test system: green foxtail (Setaria viridis, SETVI); assay: as above; conditions: rating scale 0-100 (0 no damage, 100 complete death), 14 days after application
In short: as §1

[11] = test system: lambsquarters (Chenopodium album, CHEAL); assay: Pre-emerge test, greenhouse herbicide activity screening; conditions: rating scale 0-100, 14 days after application
In short: (§2)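 Compounds in acetone were track-sprayed at 15–1000 g ai/ha: pre-emergence onto soil sown the previous day, then top-watered to incorporate and later bottom-watered; post-emergence onto 2–3 leaf plants with 0.25% v/v surfactant, bottom-watered only. Ratings on a 0–100 phytotoxicity scale were taken at day 14.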

[12] = test system: johnsongrass (Sorghum halepense, SORHA); assay: as above; conditions: rating scale 0-100, 14 days after application
In short: as §2

[13] = test system: velvetleaf (Abutilon theophrasti, ABUTH); assay: as above; conditions: rating scale 0-100, 14 days after application
In short: as §2

[14] = test system: barnyardgrass (Echinochloa crus-galli, ECHCG); assay: as above; conditions: rating scale 0-100, 14 days after application
In short: as §2

[15] = test system: ivyleaf morningglory (Ipomoea hederacea, IPOHE); assay: as above; conditions: rating scale 0-100, 14 days after application
In short: as §2

[16] = test system: large crabgrass (Digitaria sanguinalis, DIGSA); assay: as above; conditions: rating scale 0-100, 14 days after application
In short: as §2

[17] = test system: sicklepod (Cassia obtusifolia, CASOB); assay: as above; conditions: rating scale 0-100, 14 days after application
In short: as §2

[18] = test system: green foxtail (Setaria viridis, SETVI); assay: as above; conditions: rating scale 0-100, 14 days after application
In short: as §2

[19] = test system: redroot pigweed (Amaranthus retroflexus, AMARE); assay: as above; conditions: rating scale 0-100, 14 days after application
In short: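 Compounds in acetone were track-sprayed at 187 l/ha, 15–1000 g ai/ha, onto sandy loam pots. Pre-emerge seeds were sown one day before spraying, with surface watering afterwards. Post-emerge plants were at the 2–3 leaf stage and sprayed with 0.25% v/v non-ionic surfactant. Injury was rated 0–100 at 14 days.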

[20] = test system: upland rice (Oryza sp., var. Tebonnet, RICE); assay: Post-emerge test, crop safety; conditions: rating scale 0-100 (0 no damage, 100 complete death), 14 days after application
In short: (§3)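 Rating: 0–100 visual injury, 14 DAA. Application: acetone, 187 l/ha, 15–1000 g ai/ha, flat-fan track sprayer with nozzle 40–45 cm above soil or canopy. Post-emerge runs used 0.25% v/v surfactant on 2–3 leaf plants.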

[21] = test system: field corn (Zea mays L., var. Dekalb 535, CORN); assay: Post-emerge test, crop safety; conditions: rating scale 0-100 (0 no damage, 100 complete death), 14 days after application
In short: as §3

[22] = test system: upland rice (Oryza sp., var. Tebonnet, RICE); assay: Pre-emerge test, crop safety; conditions: rating scale 0-100, 14 days after application
In short: (§4)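 Applied at 15–1000 g ai/ha from acetone in 187 l/ha spray volume. Post-emergence applications included 0.25% v/v non-ionic surfactant and reached plants sown 8–21 days before. Pre-emergence applications were incorporated by surface watering. Efficacy or crop damage was rated on a 0–100 scale after 14 days.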

[23] = test system: field corn (Zea mays L., var. Dekalb 535, CORN); assay: Pre-emerge test, crop safety; conditions: rating scale 0-100, 14 days after application
In short: as §4

## COc1c(Cl)cc(F)c(-n2c(=O)cc(C(F)(F)F)n(C)c2=O)c1CC(Cl)C(=O)OCCC#N (centres unmarked) [14-29]
[1]; Rate 63 g ai/ha
  Post-emerge Herbicidal Activity, phytotoxicity rating CHEAL: 30
[1]; Rate 250 g ai/ha
  Post-emerge Herbicidal Activity, phytotoxicity rating CHEAL: 60
[2]; Rate 63 g ai/ha
  Post-emerge Herbicidal Activity, phytotoxicity rating SORHA: 50
[2]; Rate 250 g ai/ha
  Post-emerge Herbicidal Activity, phytotoxicity rating SORHA: 70
[3]; Rate 63 g ai/ha
  Post-emerge Herbicidal Activity, phytotoxicity rating ABUTH: 50
[3]; Rate 250 g ai/ha
  Post-emerge Herbicidal Activity, phytotoxicity rating ABUTH: 100
[4]; Rate 63 g ai/ha
  Post-emerge Herbicidal Activity, phytotoxicity rating ECHCG: 100
[4]; Rate 250 g ai/ha
  Post-emerge Herbicidal Activity, phytotoxicity rating ECHCG: 100
[5]; Rate 63 g ai/ha
  Post-emerge Herbicidal Activity, phytotoxicity rating AMBEL: 100
[5]; Rate 250 g ai/ha
  Post-emerge Herbicidal Activity, phytotoxicity rating AMBEL: 100
[6]; Rate 63 g ai/ha
  Post-emerge Herbicidal Activity, phytotoxicity rating IPOHE: 80
[6]; Rate 250 g ai/ha
  Post-emerge Herbicidal Activity, phytotoxicity rating IPOHE: 80
[7]; Rate 63 g ai/ha
  Post-emerge Herbicidal Activity, phytotoxicity rating DIGSA: 70
[7]; Rate 250 g ai/ha
  Post-emerge Herbicidal Activity, phytotoxicity rating DIGSA: 95
[8]; Rate 63 g ai/ha
  Post-emerge Herbicidal Activity, phytotoxicity rating CASOB: 0
[8]; Rate 250 g ai/ha
  Post-emerge Herbicidal Activity, phytotoxicity rating CASOB: 40
[9]; Rate 63 g ai/ha
  Post-emerge Herbicidal Activity, phytotoxicity rating AMARE: 90
[9]; Rate 250 g ai/ha
  Post-emerge Herbicidal Activity, phytotoxicity rating AMARE: 100
[10]; Rate 63 g ai/ha
  Post-emerge Herbicidal Activity, phytotoxicity rating SETVI: 20
[10]; Rate 250 g ai/ha
  Post-emerge Herbicidal Activity, phytotoxicity rating SETVI: 70
[11]; 63 g ai/ha
  Pre-emerge herbicidal activity, phytotoxicity rating CHEAL: 0
[11]; 250 g ai/ha
  Pre-emerge herbicidal activity, phytotoxicity rating CHEAL: 50
[12]; 63 g ai/ha
  Pre-emerge herbicidal activity, phytotoxicity rating SORHA: 0
[12]; 250 g ai/ha
  Pre-emerge herbicidal activity, phytotoxicity rating SORHA: 0
[13]; 63 g ai/ha
  Pre-emerge herbicidal activity, phytotoxicity rating ABUTH: 0
[13]; 250 g ai/ha
  Pre-emerge herbicidal activity, phytotoxicity rating ABUTH: 80
[14]; 63 g ai/ha
  Pre-emerge herbicidal activity, phytotoxicity rating ECHCG: 0
[14]; 250 g ai/ha
  Pre-emerge herbicidal activity, phytotoxicity rating ECHCG: 0
[15]; 63 g ai/ha
  Pre-emerge herbicidal activity, phytotoxicity rating IPOHE: 0
[15]; 250 g ai/ha
  Pre-emerge herbicidal activity, phytotoxicity rating IPOHE: 0
[16]; 63 g ai/ha
  Pre-emerge herbicidal activity, phytotoxicity rating DIGSA: 0
[16]; 250 g ai/ha
  Pre-emerge herbicidal activity, phytotoxicity rating DIGSA: 50
[17]; 63 g ai/ha
  Pre-emerge herbicidal activity, phytotoxicity rating CASOB: 0
[17]; 250 g ai/ha
  Pre-emerge herbicidal activity, phytotoxicity rating CASOB: 0
[18]; 63 g ai/ha
  Pre-emerge herbicidal activity, phytotoxicity rating SETVI: 0
[18]; 250 g ai/ha
  Pre-emerge herbicidal activity, phytotoxicity rating SETVI: 0
[19]; 63 g ai/ha
  Pre-emerge herbicidal activity, phytotoxicity rating AMARE: 20
[19]; 250 g ai/ha
  Pre-emerge herbicidal activity, phytotoxicity rating AMARE: 95
[20]; Rate 63 g ai/ha
  Post-emerge phytotoxicity rating RICE (crop damage): 0
[20]; Rate 250 g ai/ha
  Post-emerge phytotoxicity rating RICE (crop damage): 10
[21]; Rate 63 g ai/ha
  Post-emerge phytotoxicity rating CORN (crop damage): 15
[21]; Rate 250 g ai/ha
  Post-emerge phytotoxicity rating CORN (crop damage): 50
[22]; 63 g ai/ha
  Pre-emerge phytotoxicity rating, crop damage RICE: 0
[22]; 250 g ai/ha
  Pre-emerge phytotoxicity rating, crop damage RICE: 20
[23]; 63 g ai/ha
  Pre-emerge phytotoxicity rating, crop damage CORN: 0
[23]; 250 g ai/ha
  Pre-emerge phytotoxicity rating, crop damage CORN: 10

## CCOC(=O)C(C)(Cl)Cc1c(OC)c(Cl)cc(F)c1-n1c(=O)cc(C(F)(F)F)n(C)c1=O (centres unmarked) [14-34]
[1]; Rate 63 g ai/ha
  Post-emerge Herbicidal Activity, phytotoxicity rating CHEAL: 100
[1]; Rate 250 g ai/ha
  Post-emerge Herbicidal Activity, phytotoxicity rating CHEAL: 100
[2]; Rate 63 g ai/ha
  Post-emerge Herbicidal Activity, phytotoxicity rating SORHA: 60
[2]; Rate 250 g ai/ha
  Post-emerge Herbicidal Activity, phytotoxicity rating SORHA: 80
[3]; Rate 63 g ai/ha
  Post-emerge Herbicidal Activity, phytotoxicity rating ABUTH: 99
[3]; Rate 250 g ai/ha
  Post-emerge Herbicidal Activity, phytotoxicity rating ABUTH: 100
[4]; Rate 63 g ai/ha
  Post-emerge Herbicidal Activity, phytotoxicity rating ECHCG: 100
[4]; Rate 250 g ai/ha
  Post-emerge Herbicidal Activity, phytotoxicity rating ECHCG: 100
[5]; Rate 63 g ai/ha
  Post-emerge Herbicidal Activity, phytotoxicity rating AMBEL: 40
[5]; Rate 250 g ai/ha
  Post-emerge Herbicidal Activity, phytotoxicity rating AMBEL: 100
[6]; Rate 63 g ai/ha
  Post-emerge Herbicidal Activity, phytotoxicity rating IPOHE: 60
[6]; Rate 250 g ai/ha
  Post-emerge Herbicidal Activity, phytotoxicity rating IPOHE: 90
[7]; Rate 63 g ai/ha
  Post-emerge Herbicidal Activity, phytotoxicity rating DIGSA: 70
[7]; Rate 250 g ai/ha
  Post-emerge Herbicidal Activity, phytotoxicity rating DIGSA: 99
[8]; Rate 63 g ai/ha
  Post-emerge Herbicidal Activity, phytotoxicity rating CASOB: 40
[8]; Rate 250 g ai/ha
  Post-emerge Herbicidal Activity, phytotoxicity rating CASOB: 100
[9]; Rate 63 g ai/ha
  Post-emerge Herbicidal Activity, phytotoxicity rating AMARE: 100
[9]; Rate 250 g ai/ha
  Post-emerge Herbicidal Activity, phytotoxicity rating AMARE: 100
[10]; Rate 63 g ai/ha
  Post-emerge Herbicidal Activity, phytotoxicity rating SETVI: 100
[10]; Rate 250 g ai/ha
  Post-emerge Herbicidal Activity, phytotoxicity rating SETVI: 100
[11]; 63 g ai/ha
  Pre-emerge herbicidal activity, phytotoxicity rating CHEAL: 95
[11]; 250 g ai/ha
  Pre-emerge herbicidal activity, phytotoxicity rating CHEAL: 100
[12]; 63 g ai/ha
  Pre-emerge herbicidal activity, phytotoxicity rating SORHA: 0
[12]; 250 g ai/ha
  Pre-emerge herbicidal activity, phytotoxicity rating SORHA: 30
[13]; 63 g ai/ha
  Pre-emerge herbicidal activity, phytotoxicity rating ABUTH: 100
[13]; 250 g ai/ha
  Pre-emerge herbicidal activity, phytotoxicity rating ABUTH: 100
[14]; 63 g ai/ha
  Pre-emerge herbicidal activity, phytotoxicity rating ECHCG: 20
[14]; 250 g ai/ha
  Pre-emerge herbicidal activity, phytotoxicity rating ECHCG: 90
[15]; 63 g ai/ha
  Pre-emerge herbicidal activity, phytotoxicity rating IPOHE: 10
[15]; 250 g ai/ha
  Pre-emerge herbicidal activity, phytotoxicity rating IPOHE: 10
[16]; 63 g ai/ha
  Pre-emerge herbicidal activity, phytotoxicity rating DIGSA: 90
[16]; 250 g ai/ha
  Pre-emerge herbicidal activity, phytotoxicity rating DIGSA: 100
[17]; 63 g ai/ha
  Pre-emerge herbicidal activity, phytotoxicity rating CASOB: 20
[17]; 250 g ai/ha
  Pre-emerge herbicidal activity, phytotoxicity rating CASOB: 10
[18]; 63 g ai/ha
  Pre-emerge herbicidal activity, phytotoxicity rating SETVI: 30
[18]; 250 g ai/ha
  Pre-emerge herbicidal activity, phytotoxicity rating SETVI: 100
[19]; 63 g ai/ha
  Pre-emerge herbicidal activity, phytotoxicity rating AMARE: 100
[19]; 250 g ai/ha
  Pre-emerge herbicidal activity, phytotoxicity rating AMARE: 100
[20]; Rate 63 g ai/ha
  Post-emerge phytotoxicity rating RICE (crop damage): 25
[20]; Rate 250 g ai/ha
  Post-emerge phytotoxicity rating RICE (crop damage): 70
[21]; Rate 63 g ai/ha
  Post-emerge phytotoxicity rating CORN (crop damage): 80
[21]; Rate 250 g ai/ha
  Post-emerge phytotoxicity rating CORN (crop damage): 100
[22]; 63 g ai/ha
  Pre-emerge phytotoxicity rating, crop damage RICE: 20
[22]; 250 g ai/ha
  Pre-emerge phytotoxicity rating, crop damage RICE: 90
[23]; 63 g ai/ha
  Pre-emerge phytotoxicity rating, crop damage CORN: 0
[23]; 250 g ai/ha
  Pre-emerge phytotoxicity rating, crop damage CORN: 25
